Common to all, as to format: biochemical
Assay [1] concerns the target T1, Yes (Homo sapiens, UniProt P07947).
T1 construct: purchased Invitrogen (Carlsbad, Calif.), screening service
Kind of assay: Z'-Lyte FRET kinase assay (Invitrogen), Yes. As to conditions: read-out: IC50, activity toward kinase Yes. In outline: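 Serially diluted compound (1% DMSO final) is mixed with kinase plus 2 μM peptide substrate in pH 7.5 HEPES buffer, then ATP is added to 10 μM. After 1 h at room temperature, site-specific protease is added for another hour, reactions are stopped and fluorescence ratio measured.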

The target of assay [2] is MAP4K4 (Homo sapiens, UniProt O95819). Kind of assay: AlphaScreen kinase assay, MAP4K4. Conditions: read-out: IC50, activity toward kinase MAP4K4.
Assay [3] has as its target T2, Kdr (Homo sapiens, UniProt P35968).
T2 construct: purchased Invitrogen (assay run by Invitrogen)
Nature of the assay: Z'-Lyte FRET kinase assay (Invitrogen), Kdr. Conditions: read-out: IC50, activity toward kinase Kdr.

Assay [4] addresses T3, Stk6 (Homo sapiens, UniProt O14965).
T3 construct: purchased Invitrogen (Carlsbad, Calif.), screening service
T3 sequence (O14965 1-403): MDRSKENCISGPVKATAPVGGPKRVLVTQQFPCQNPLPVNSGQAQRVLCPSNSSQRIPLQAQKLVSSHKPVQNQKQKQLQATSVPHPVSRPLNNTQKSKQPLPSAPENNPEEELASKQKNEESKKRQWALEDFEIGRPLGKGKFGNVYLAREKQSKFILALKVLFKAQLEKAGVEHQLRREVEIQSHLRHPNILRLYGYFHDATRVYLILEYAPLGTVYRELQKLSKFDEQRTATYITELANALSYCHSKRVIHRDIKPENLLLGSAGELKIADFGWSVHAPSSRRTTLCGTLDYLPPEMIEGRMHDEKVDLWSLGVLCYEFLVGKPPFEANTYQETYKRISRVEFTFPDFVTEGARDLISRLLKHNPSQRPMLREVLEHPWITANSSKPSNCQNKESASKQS
Kind of assay: Z'-Lyte FRET kinase assay (Invitrogen), Stk6. As to conditions: read-out: IC50, activity toward kinase Stk6.

In assay [5] the target is T4, Flt1 (Homo sapiens, UniProt P17948).
T4 construct: P1826.pETN6 BI-PTP FLT1 M799-D1165-X WT; His6 (N); made in house; host or cells: E. coli (PTP1B co-expressed)
T4 sequence (P17948 with tags, fused parts or gaps): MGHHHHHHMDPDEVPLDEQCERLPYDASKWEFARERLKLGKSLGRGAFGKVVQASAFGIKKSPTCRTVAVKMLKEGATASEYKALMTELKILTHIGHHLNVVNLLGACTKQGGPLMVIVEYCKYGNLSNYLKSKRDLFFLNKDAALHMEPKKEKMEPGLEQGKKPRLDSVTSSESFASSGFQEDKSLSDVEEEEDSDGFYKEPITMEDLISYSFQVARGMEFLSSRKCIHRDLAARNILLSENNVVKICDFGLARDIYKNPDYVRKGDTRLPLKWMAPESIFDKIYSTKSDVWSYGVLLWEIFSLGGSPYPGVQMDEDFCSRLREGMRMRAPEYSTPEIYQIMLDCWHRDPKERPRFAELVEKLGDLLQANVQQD
Nature of the assay: AlphaScreen kinase assay, Flt1. As to conditions: read-out: IC50, activity toward kinase Flt1.

The target of assay [6] is Akt3 (Homo sapiens, UniProt Q9Y243). Kind of assay: AlphaScreen kinase assay, Akt3. As to conditions: read-out: IC50, activity toward kinase Akt3. From the text: AlphaScreen assay was used to screen additional kinases. The assay is similarly dependent on the phosphorylation of a peptide substrate. In this assay, an antibody that recognizes phosphorylated substrate is bound to an acceptor bead. The peptide substrate is attached to biotin, which binds to a donor head that contains streptavidin. Thus phosphorylated substrate is bound by antibody and streptavidin, bringing the donor and acceptor heads into close proximity when kinase is not inhibited. The donor produces singlet oxygen which results in emission from the acceptor when they are in close proximity. Conversely, when kinase is inhibited, the donor and acceptor beads are not associated and the emission from the acceptor is reduced.
AlphaScreen assays were done using compounds dissolved in DMSO to a concentration of 20 mM. The compounds were diluted accordingly to the desired final concentrations in each sample well, using 1:3 serial dilution for a total of 8 concentration points.

Assay [7] addresses T5, Ret (Homo sapiens, UniProt P07949).
T5 construct: P1378.pET-SF BI-PTP RET H661-R1012 HIS; made in house
T5 sequence (P07949 with tags, fused parts or gaps): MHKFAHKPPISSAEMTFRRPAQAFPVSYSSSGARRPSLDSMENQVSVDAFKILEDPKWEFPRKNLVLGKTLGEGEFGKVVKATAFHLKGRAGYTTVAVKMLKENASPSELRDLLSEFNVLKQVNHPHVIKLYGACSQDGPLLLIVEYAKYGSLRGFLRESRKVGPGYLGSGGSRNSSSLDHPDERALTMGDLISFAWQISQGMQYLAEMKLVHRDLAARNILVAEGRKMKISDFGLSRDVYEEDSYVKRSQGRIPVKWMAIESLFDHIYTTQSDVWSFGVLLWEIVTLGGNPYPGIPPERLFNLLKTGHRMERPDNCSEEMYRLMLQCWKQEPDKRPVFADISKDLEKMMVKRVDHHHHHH
Kind of assay: AlphaScreen kinase assay, Ret. Conditions: read-out: IC50, activity toward kinase Ret. (In general: In Alpha technology, singlet oxygen from a donor bead excites a nearby acceptor bead.)
Method: (§1) AlphaScreen assays were done using compounds dissolved in DMSO to a concentration of 20 mM. The compounds were diluted accordingly to the desired final concentrations in each sample well, using 1:3 serial dilution for a total of 8 concentration points. Plates were prepared such that each kinase reaction is 20 μl in 1× kinase buffer, 5% DMSO and 10 μM ATP. After incubation of the kinase reaction for 1 hour at room temperature, 5 μl of donor beads in stop buffer (50 mM EDTA in 1× kinase buffer) was added, the sample was mixed and incubated for 20 minutes at room temperature before adding 5 μl of acceptor beads in stop buffer. The samples were incubated for 60 minutes at room temperature and the signal per well was read on AlphaQuest reader.

The target in assay [8] is T6, FGFR1 (Homo sapiens, UniProt P11362, C488A/C584S).
T6 construct: P1351.pET N6 BI-PTP FGFR A458-E765-X C488A, C584S; made in house; host or cells: E. coli (PTP1B co-expressed)
Nature of the assay: AlphaScreen kinase assay, FGFR1. Conditions: read-out: IC50, activity toward kinase FGFR.

In assay [9] the target is T7, Zap70 (Homo sapiens, UniProt P43403).
T7 construct: P1868.pFastBac1 ZAP70 D327-G606 HIS, WT; His7 (HHHHHHH) (C); made in house
T7 sequence (P43403 with tags, fused parts or gaps): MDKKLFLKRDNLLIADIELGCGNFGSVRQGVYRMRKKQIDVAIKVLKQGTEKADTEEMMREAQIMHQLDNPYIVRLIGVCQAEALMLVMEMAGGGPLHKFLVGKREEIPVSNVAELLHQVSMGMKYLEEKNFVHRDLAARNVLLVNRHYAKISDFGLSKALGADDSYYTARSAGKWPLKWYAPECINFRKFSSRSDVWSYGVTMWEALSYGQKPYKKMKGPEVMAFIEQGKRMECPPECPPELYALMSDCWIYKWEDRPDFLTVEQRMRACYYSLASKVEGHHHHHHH
Nature of the assay: AlphaScreen kinase assay, Zap70. As to conditions: read-out: IC50, activity toward kinase Zap70. In outline: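 Compounds in DMSO (20 mM stock) were diluted 1:3 across 8 points. Each kinase phosphorylated a biotin-labelled peptide. Signal generated when donor and acceptor beads came close via antibody binding of phosphorylated substrate.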

Assay [10] deals with T8, Jnk1 (Homo sapiens, UniProt P45983).
T8 construct: purchased Upstate Biotechnology
Nature of the assay: AlphaScreen kinase assay, Jnk1. As to conditions: read-out: IC50, activity toward kinase Jnk1.

Assay [11] addresses T9, B-Raf V600E (Homo sapiens, UniProt P15056, V600E).
T9 construct: P4254. pFastBacBD-CDC37 BRAF D437-K722-X, V600E; His6 with pFastBac HT leader (TEV site) (N); made in house; host or cells: Sf9 (baculovirus; chaperone CDC37 co-expressed)
Nature of the assay: AlphaScreen kinase assay, B-Raf V600E. Conditions: read-out: IC50, activity toward kinase B-Raf V600E.

Assay [12] concerns the target T10, Fak (Homo sapiens, UniProt Q05397).
T10 construct: P1358.pFastBacHtb FAK S411-Q686-X; His6 with pFastBacHTb leader (TEV site) (N); made in house; host or cells: Sf9 (baculovirus)
Kind of assay: AlphaScreen kinase assay, Fak. Conditions: read-out: IC50, activity toward kinase Fak.

Assay [13] concerns the target T11, B-Raf (Homo sapiens, UniProt P15056).
T11 construct: purchased Upstate Biotechnology
Nature of the assay: AlphaScreen kinase assay, B-Raf. As to conditions: read-out: IC50, activity toward kinase B-Raf.

For assay [14], the target named is T12, Pyk2 (Homo sapiens, UniProt Q14289).
T12 construct: purchased Upstate Biotechnology
Kind of assay: AlphaScreen kinase assay, Pyk2. Conditions: read-out: IC50, activity toward kinase Pyk2.
Method: as §1

Assay [15] has as its target T13, Kit (Homo sapiens, UniProt P10721).
T13 construct: P1332.N6 BI PTP KIT M552-K948-X COD; His6 (N); made in house; host or cells: E. coli (PTP1B co-expressed)
Nature of the assay: AlphaScreen kinase assay, Kit. As to conditions: read-out: IC50, activity toward kinase Kit.

Assay [16] concerns the target T14, Fms (Homo sapiens, UniProt P07333).
T14 construct: purchased Upstate Biotechnology
Kind of assay: AlphaScreen kinase assay, Fms. As to conditions: read-out: IC50, activity toward kinase Fms.

In assay [17] the target is T15, c-Raf-1 (Homo sapiens, UniProt P04049).
T15 construct: purchased Upstate Biotechnology
Kind of assay: AlphaScreen kinase assay, c-Raf-1. As to conditions: read-out: IC50, activity toward kinase c-Raf-1.

Assay [18] concerns the target T16, Src (Homo sapiens, UniProt P12931).
T16 construct: P1144. pET-N6 BI-PTP SRC V86-L536-X; made in house
Kind of assay: AlphaScreen kinase assay, Src. Conditions: read-out: IC50, activity toward kinase Src.

Assay [19] concerns the target T17, Jnk3 (Homo sapiens, UniProt P53779).
T17 construct: purchased Upstate Biotechnology
Kind of assay: AlphaScreen kinase assay, Jnk3. Conditions: read-out: IC50, activity toward kinase Jnk3.

SMILES strings stand for the structures.

T6 sequence (P11362 458-765 C488A/C584S): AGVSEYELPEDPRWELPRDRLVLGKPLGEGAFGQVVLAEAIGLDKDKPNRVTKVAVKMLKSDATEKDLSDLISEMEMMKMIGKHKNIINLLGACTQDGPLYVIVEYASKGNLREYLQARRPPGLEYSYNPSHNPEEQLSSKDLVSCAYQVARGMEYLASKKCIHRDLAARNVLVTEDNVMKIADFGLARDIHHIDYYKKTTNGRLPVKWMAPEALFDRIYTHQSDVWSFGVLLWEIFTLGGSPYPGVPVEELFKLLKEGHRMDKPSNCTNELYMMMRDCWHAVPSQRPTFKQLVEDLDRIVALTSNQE
T9 sequence (P15056 with tags, fused parts or gaps V600E): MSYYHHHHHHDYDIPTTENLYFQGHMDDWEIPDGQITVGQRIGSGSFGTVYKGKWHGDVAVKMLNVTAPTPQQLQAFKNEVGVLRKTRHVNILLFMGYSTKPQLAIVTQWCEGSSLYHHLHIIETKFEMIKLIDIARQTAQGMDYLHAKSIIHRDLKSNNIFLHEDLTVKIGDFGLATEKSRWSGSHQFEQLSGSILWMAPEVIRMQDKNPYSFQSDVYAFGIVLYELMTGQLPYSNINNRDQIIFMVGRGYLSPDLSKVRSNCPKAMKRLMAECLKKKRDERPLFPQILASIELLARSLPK
T15 sequence (P04049 whole entry): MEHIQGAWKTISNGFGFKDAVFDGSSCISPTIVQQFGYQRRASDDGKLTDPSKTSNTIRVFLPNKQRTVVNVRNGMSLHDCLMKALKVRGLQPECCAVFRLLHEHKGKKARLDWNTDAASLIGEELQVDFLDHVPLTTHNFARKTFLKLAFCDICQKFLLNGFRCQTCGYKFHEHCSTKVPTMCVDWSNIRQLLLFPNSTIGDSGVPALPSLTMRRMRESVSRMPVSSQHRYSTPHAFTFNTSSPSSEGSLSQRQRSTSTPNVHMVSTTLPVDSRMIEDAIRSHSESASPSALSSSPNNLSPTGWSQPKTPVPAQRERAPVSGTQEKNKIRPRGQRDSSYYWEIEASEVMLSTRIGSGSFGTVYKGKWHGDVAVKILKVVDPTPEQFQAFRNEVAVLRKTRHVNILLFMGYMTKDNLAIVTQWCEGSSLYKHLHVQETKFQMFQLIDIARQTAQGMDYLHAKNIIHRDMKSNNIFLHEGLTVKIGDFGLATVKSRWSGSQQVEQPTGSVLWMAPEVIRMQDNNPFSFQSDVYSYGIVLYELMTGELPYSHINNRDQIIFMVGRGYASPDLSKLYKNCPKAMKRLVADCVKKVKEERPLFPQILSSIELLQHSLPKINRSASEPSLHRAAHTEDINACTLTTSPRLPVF
Akt3, sequence (Q9Y243 whole entry): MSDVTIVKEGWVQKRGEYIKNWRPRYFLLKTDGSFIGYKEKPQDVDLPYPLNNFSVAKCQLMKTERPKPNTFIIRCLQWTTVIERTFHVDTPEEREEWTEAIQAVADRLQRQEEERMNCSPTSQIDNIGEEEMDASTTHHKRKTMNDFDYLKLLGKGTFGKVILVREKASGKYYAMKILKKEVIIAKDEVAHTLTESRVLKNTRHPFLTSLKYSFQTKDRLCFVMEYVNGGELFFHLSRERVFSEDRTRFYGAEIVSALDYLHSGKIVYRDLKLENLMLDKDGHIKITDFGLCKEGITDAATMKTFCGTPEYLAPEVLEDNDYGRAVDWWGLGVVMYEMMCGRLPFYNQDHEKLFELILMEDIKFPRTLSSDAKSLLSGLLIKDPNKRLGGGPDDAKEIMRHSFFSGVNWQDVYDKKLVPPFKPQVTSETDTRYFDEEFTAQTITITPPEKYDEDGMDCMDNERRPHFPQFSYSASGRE
MAP4K4, sequence (O95819 whole entry): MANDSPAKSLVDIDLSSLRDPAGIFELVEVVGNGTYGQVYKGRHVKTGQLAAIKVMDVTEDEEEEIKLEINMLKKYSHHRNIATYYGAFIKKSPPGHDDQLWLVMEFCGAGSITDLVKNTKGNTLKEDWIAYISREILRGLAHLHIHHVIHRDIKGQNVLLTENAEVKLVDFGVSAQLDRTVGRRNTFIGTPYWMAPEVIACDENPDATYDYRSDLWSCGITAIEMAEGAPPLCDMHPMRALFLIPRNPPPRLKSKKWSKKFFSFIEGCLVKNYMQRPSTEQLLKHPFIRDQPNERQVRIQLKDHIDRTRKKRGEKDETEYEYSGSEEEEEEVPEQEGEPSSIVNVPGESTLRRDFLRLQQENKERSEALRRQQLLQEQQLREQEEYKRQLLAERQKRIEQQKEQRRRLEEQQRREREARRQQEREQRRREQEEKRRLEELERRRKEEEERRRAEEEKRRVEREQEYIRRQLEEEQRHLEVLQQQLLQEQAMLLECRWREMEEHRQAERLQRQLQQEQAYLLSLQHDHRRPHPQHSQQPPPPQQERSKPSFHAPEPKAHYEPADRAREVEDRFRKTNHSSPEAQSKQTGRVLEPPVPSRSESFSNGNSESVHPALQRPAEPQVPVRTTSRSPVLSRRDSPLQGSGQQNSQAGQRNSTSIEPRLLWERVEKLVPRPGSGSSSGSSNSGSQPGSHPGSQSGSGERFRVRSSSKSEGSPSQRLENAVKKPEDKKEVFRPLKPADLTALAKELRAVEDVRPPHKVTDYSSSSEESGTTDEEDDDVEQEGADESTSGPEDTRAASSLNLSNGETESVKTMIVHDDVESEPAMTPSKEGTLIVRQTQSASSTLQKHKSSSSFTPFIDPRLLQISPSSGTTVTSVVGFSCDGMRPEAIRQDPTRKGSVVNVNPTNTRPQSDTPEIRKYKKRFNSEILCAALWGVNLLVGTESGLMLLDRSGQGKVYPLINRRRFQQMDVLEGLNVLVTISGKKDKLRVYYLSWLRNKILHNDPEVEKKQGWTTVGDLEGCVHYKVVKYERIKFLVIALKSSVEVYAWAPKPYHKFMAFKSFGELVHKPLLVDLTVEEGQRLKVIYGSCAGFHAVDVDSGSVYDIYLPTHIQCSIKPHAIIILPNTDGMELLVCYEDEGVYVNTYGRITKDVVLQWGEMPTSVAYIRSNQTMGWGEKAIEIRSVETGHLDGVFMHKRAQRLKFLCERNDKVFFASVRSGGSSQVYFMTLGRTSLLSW
T13 sequence (P10721 with tags, fused parts or gaps): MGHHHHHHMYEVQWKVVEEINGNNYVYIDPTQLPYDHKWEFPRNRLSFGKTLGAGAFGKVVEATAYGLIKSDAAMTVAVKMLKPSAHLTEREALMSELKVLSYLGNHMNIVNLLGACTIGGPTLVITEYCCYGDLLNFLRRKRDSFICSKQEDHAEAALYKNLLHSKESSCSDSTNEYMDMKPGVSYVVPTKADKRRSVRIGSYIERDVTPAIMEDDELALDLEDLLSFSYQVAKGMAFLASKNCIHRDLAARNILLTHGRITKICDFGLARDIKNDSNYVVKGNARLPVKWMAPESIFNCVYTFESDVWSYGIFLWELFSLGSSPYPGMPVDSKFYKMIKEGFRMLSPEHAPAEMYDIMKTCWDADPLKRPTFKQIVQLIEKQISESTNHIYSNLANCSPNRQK
T2 sequence (P35968 20-1356): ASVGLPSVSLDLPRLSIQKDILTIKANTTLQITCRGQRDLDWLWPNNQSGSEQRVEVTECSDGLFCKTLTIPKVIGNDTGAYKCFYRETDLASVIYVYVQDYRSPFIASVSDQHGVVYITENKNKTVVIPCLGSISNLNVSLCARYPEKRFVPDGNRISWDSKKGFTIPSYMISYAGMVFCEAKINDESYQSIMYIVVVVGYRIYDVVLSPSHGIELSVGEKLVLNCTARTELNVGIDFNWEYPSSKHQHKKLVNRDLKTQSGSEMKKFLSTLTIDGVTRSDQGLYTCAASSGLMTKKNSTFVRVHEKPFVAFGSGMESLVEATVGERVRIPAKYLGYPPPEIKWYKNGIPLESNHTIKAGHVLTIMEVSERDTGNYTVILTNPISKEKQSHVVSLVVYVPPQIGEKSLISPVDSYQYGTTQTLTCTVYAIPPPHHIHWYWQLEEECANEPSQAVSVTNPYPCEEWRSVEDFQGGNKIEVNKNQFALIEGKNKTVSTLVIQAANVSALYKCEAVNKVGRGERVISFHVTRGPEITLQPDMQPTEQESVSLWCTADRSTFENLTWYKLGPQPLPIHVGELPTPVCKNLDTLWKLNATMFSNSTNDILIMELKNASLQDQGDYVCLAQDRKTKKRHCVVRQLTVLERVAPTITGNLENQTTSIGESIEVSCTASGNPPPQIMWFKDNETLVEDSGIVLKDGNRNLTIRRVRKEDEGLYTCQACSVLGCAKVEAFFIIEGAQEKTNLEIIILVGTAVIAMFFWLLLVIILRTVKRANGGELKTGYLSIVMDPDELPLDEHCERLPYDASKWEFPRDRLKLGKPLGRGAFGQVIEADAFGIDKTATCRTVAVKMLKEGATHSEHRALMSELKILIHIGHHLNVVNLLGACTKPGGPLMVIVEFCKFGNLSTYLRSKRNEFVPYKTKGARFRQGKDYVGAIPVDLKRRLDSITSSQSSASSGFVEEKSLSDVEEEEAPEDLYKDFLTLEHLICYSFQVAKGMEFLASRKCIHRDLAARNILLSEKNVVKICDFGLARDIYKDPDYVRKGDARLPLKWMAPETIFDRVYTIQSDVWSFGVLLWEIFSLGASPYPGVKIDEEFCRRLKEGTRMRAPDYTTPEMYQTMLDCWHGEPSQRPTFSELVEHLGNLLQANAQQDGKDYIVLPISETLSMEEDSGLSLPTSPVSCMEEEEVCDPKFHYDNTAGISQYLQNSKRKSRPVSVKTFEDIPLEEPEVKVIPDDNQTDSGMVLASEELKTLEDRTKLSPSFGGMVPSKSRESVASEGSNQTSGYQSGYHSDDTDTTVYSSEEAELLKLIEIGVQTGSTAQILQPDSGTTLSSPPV
T10 sequence (Q05397 411-686): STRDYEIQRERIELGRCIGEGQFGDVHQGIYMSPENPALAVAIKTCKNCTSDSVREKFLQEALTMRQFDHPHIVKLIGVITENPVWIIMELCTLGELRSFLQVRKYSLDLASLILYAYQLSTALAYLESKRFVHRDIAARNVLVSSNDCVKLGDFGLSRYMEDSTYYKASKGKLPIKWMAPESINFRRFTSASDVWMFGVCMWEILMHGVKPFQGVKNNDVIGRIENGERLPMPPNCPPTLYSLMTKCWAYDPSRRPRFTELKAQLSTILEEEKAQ

Usually IC50 stands for the concentration that gives 50% inhibition. On to `O=C(c1ccc(NCC2CC2)nc1)c1c[nH]c2ncccc12` [Compound P-0202], for which the 50% inhibitory concentration (IC50) in assay [1], in assay [2], in [3] and in assay [4] was at most 10 µM in each case.
For the compound `O=C(NCc1ccccc1)c1ccc(-c2c[nH]c3ncccc23)cc1` [Compound P-0278], the half-maximal inhibitory concentration (IC50) in [5] and in assay [6] was at most 10 µM throughout.
As for `COc1cccc(C(=O)c2c[nH]c3nccc(-c4cccc(C(N)=O)c4)c23)c1` [Compound P-0329], the IC50 in [7], in assay [8] and in [6] was at most 10 µM in each case.
In the case of `c1ccc2c(Cc3c[nH]c4ncccc34)cccc2c1` [Compound P-0442], the half-maximal inhibitory concentration (IC50) in assay [2], in assay [8] and in [9] was at most 10 µM in each case.
On to `CC(C)S(=O)(=O)Nc1ccc(F)c(Cc2c[nH]c3ncc(-c4cccnc4)cc23)c1F` [Compound P-0851], for which the IC50 in [10], in assay [11], in assay [12], in [13], in [14] and in [15] was at most 10 µM each time. The IC50 in assay [2], in [16], in assay [17], in [8], in [18] and in assay [19] was at most 10 µM each time.
Consider `CN(C)c1ccc(Nc2ccnc3[nH]ccc23)cc1` [Compound P-0890], for which the IC50 in [17] and in [6] was at most 10 µM each time.
For the compound `COc1ccc(Nc2ccnc3[nH]ccc23)cc1Cl` [Compound P-0936], the half-inhibitory concentration (IC50) in [6] is at most 10 µM.
The same measure, in the same setting: the value for `c1cc(Nc2ccc3[nH]ccc3c2)c2cc[nH]c2n1` [Compound P-0940] was at most 10 µM; that for `CSc1ccc(Nc2ccnc3[nH]ccc23)cc1` [Compound P-0990] was at most 10 µM.
On the same count and under the same terms, the value for `Cc1ccc(Nc2ccnc3[nH]ccc23)cc1[N+](=O)[O-]` [Compound P-0995] was at most 10 µM; that for `c1cnc2ccc(Nc3cnc4[nH]ccc4c3)cc2c1` [Compound P-1034] was at most 10 µM; that for `CC(C)c1ccc(Nc2cnc3[nH]ccc3c2)cc1` [Compound P-1039] was at most 10 µM.
The same measure, in the same setting: the value for `c1cc2cc(Nc3ccc4ncsc4c3)cnc2[nH]1` [Compound P-1040] was at most 10 µM.
On to `CCCc1ccc(Nc2cnc3[nH]ccc3c2)cc1` [Compound P-1043], for which the concentration for half-maximal inhibition (IC50) in assay [11] and in [6] was at most 10 µM throughout.
For the compound `Fc1cccc(Nc2ccnc3[nH]ccc23)c1` [Compound P-1047], the IC50 in [17] and in assay [6] was at most 10 µM each time.
For `Cc1cccc(Nc2ccnc3[nH]ccc23)c1` [Compound P-1060], in assay [6], the IC50 is at most 10 µM.
Same read-out and setting: the value for `c1cc(Nc2ccc3c(c2)OCO3)c2cc[nH]c2n1` [Compound P-1062] was at most 10 µM.
The same measure, in the same setting: the value for `COc1ccc(Nc2cnc3[nH]ccc3c2)cc1` [Compound P-1095] was at most 10 µM.
Take `CCOC(c1ccc(N(Cc2ccc(Cl)cc2)C(=O)OC(C)(C)C)nc1)c1c[nH]c2ncccc12` (stereo not drawn) [Compound P-1139]: the 50% inhibitory concentration (IC50) in assay [11] and in assay [6] was at most 10 µM in each case.
Consider `Fc1ccc(Nc2ccnc3[nH]ccc23)cc1` [Compound P-1145], for which the IC50 in assay [17] and in assay [6] was at most 10 µM throughout.
In the case of `c1cc(Nc2ccc(-c3cnco3)cc2)c2cc[nH]c2n1` [Compound P-1147], the 50% inhibitory concentration (IC50) in assay [5] and in assay [6] was at most 10 µM each time.
With `CSc1cccc(Nc2cnc3[nH]ccc3c2)c1` [Compound P-1150], the half-inhibitory concentration (IC50) in [6] was at most 10 µM.
Still for that read-out and setting: the value for `COc1ccc(Nc2ccnc3[nH]ccc23)cc1` [Compound P-1155] was at most 10 µM.
In the case of `CSc1ccc(Nc2cnc3[nH]ccc3c2)cc1` [Compound P-1158], the IC50 in [6] is at most 10 µM.
For the compound `Oc1ccc(Nc2ccnc3[nH]ccc23)cc1` [Compound P-1172], the IC50 in assay [6] was at most 10 µM.
On the same count and under the same terms, the value for `c1ccc(Nc2ccnc3[nH]ccc23)cc1` [Compound P-1224] was at most 10 µM.
